{"source": "patent US20120164104A1", "about": "“Composition and Methods of Treating Viral Infections and Viral Induced Tumors” (Chimerix, Inc., priority 2009, published 2012)", "key": {"[1]": {"test_system": "SK-OV-3", "test": "Cell proliferation assay (MTS or SRB), SK-OV-3", "type": "cell-based, human", "conditions": "SK-OV-3, Ovarian, 3 days; read-out: IC50 (cell growth inhibition)", "protocol": "(§1) In vitro cell proliferation assays were performed using a 96-well plate based MTSassay (CellTiter 96° AqueousOne Solution Cell Proliferation Assay, Promega) or SRB (Sulforhodamine-B) assay (1-3). Briefly, cells were plated in 100 μl medium on day 0 in 96-well microtiter plates (Falcon #3072). On day 1, 10 μl of serial dilutions of each compound (Nine 1:2 dilutions with a starting concentration of 100 μM; in some cases, a starting concentration of 400 μM (CMX001 or Cidofovir) or 1 μM (some standard agents)) were added in triplicates to the plates. For standard agents using DMSO as solvent, serial dilutions of DMSO with a starting concentration of 0.5% were also included as a vehicle control.\n(§2) After incubation for 3 days at 37° C. in a humidified incubator, viable cells were measured either by MTS or SRB assay. For MTS assay, 20 μl of a 20:1 mixture of (3-(4,5-dimethylthiazol-2-yl)-5-(3-carboxymethoxyphenyl)-2-(4-sulfophenyl)-2H-tetrazolium, inner salt (MTS, 2 mg/ml) and an electron coupling reagent, phenazine methosulfate (PMS, 0.92 mg/ml in DPBS), was added to each well and incubated for 3 hours at 37° C. Absorbance was measured using a BioTek Synergy™ HT Multiple Detection microplate reader at 490 nm. For SRB assay, cells were fixed in situ with 50 μL of cold trichloroacetic acid (TCA, final concentration at 10% w/v) for 60 minutes. Cells were then washed 5 times with H2O and air-dried.\n(§3) Next, cells were stained with 20 μL of 0.2% SRB in 1% acetic acid and incubated at room temperature for 30 minutes and unbound SRB was removed by washing 5 times with 1% acetic acid and air-dried. Finally, bound SRB stain was solubilized in 50 μL of 50 μM Tris buffer before taking an optical density measurement at 570 nm using the BioTek microplate reader. The growth inhibition data were expressed as the percentage of cell survival calculated from the background corrected absorbance. The surviving fraction of cells was determined by dividing the mean absorbance values of the test agent-treated samples by the mean absorbance values of untreated control. […]"}, "[2]": {"test_system": "OVCAR-3", "test": "Cell proliferation assay (MTS or SRB), OVCAR-3", "type": "cell-based, human", "conditions": "OVCAR-3, Ovarian, 3 days; read-out: IC50 (cell growth inhibition)", "protocol": "as §1, §2, §3"}, "[3]": {"test_system": "C33A", "test": "Cell proliferation assay (MTS or SRB), C33A", "type": "cell-based, human", "conditions": "Cervical, 3 days, read-out: IC50 (cell growth inhibition)", "protocol": "as §1, §2, §3"}, "[4]": {"test_system": "SiHa", "test": "Cell proliferation assay (MTS or SRB), SiHa", "type": "cell-based, human", "conditions": "Cervical, 3 days, read-out: IC50 (cell growth inhibition)", "protocol": "as §1, §2, §3"}, "[5]": {"test_system": "HT-29", "test": "Cell proliferation assay (MTS or SRB), HT-29", "type": "cell-based, human", "conditions": "HT-29, Colon, 3 days; read-out: IC50 (cell growth inhibition)", "protocol": "as §1, §2, §3"}, "[6]": {"test_system": "HCT-116", "test": "Cell proliferation assay (MTS or SRB), HCT-116", "type": "cell-based, human", "conditions": "HCT-116, Colon, 3 days; read-out: IC50 (cell growth inhibition)", "protocol": "as §1, §2, §3"}, "[7]": {"test_system": "MIA PaCa-2", "test": "Cell proliferation assay (MTS or SRB), MIA PaCa-2", "type": "cell-based", "conditions": "Homo sapiens, 72 h; MIA PaCa-2, Pancreatic, 3 days; read-out: IC50 (cell growth inhibition)", "protocol": "as §1, §2, §3"}, "[8]": {"test_system": "PANC-1", "test": "Cell proliferation assay (MTS or SRB), PANC-1", "type": "cell-based", "conditions": "Homo sapiens, 72 h; PANC-1, Pancreatic, 3 days; read-out: IC50 (cell growth inhibition)", "protocol": "as §1, §2, §3"}, "[9]": {"test_system": "SCaBER", "test": "Cell proliferation assay (MTS or SRB), SCaBER", "type": "cell-based", "conditions": "Homo sapiens, 72 h, Bladder, 3 days, read-out: IC50 (cell growth inhibition)", "protocol": "as §1, §2, §3"}, "[10]": {"test_system": "Hep G2", "test": "Cell proliferation assay (MTS or SRB), Hep G2", "type": "cell-based", "conditions": "Homo sapiens, HepG2, 72 h; Hep G2, Liver, 3 days; read-out: IC50 (cell growth inhibition)", "protocol": "as §1, §2, §3"}, "[11]": {"test_system": "SK-HEP-1", "test": "Cell proliferation assay (MTS or SRB), SK-HEP-1", "type": "cell-based", "conditions": "Homo sapiens, SK-HEP1, 72 h; SK-HEP-1, Liver, 3 days; read-out: IC50 (cell growth inhibition)", "protocol": "as §1, §2, §3"}, "[12]": {"test_system": "Caki-1", "test": "Cell proliferation assay (MTS or SRB), Caki-1", "type": "cell-based", "conditions": "Homo sapiens, 72 h; Caki-1, Kidney, 3 days; read-out: IC50 (cell growth inhibition)", "protocol": "as §1, §2, §3"}, "[13]": {"test_system": "Caki-2", "test": "Cell proliferation assay (MTS or SRB), Caki-2", "type": "cell-based", "conditions": "Homo sapiens, 72 h; Caki-2, Kidney, 3 days; read-out: IC50 (cell growth inhibition)", "protocol": "as §1, §2, §3"}, "[14]": {"test_system": "SW 780", "test": "Cell proliferation assay (MTS or SRB), SW 780", "type": "cell-based", "conditions": "Homo sapiens, SW780, 72 h; SW 780, Bladder, 3 days; read-out: IC50 (cell growth inhibition)", "protocol": "as §1, §2, §3"}, "[15]": {"test_system": "A2058", "test": "Cell proliferation assay (MTS or SRB), A2058", "type": "cell-based", "conditions": "Homo sapiens, 72 h; A2058, Skin (melanoma), 3 days; read-out: IC50 (cell growth inhibition)", "protocol": "as §1, §2\n(§4) Next, cells were stained with 20 μL of 0.2% SRB in 1% acetic acid and incubated at room temperature for 30 minutes and unbound SRB was removed by washing 5 times with 1% acetic acid and air-dried. Finally, bound SRB stain was solubilized in 50 μL of 50 μM Tris buffer before taking an optical density measurement at 570 nm using the BioTek microplate reader. The growth inhibition data were expressed as the percentage of cell survival calculated from the background corrected absorbance. The surviving fraction of cells was determined by dividing the mean absorbance values of the test agent-treated samples by the mean absorbance values of untreated control.\n(§5) Raw data were acquired using a BioTek Synergy™ HT Multiple Detection microplate reader and imported into Microsoft Excel for analysis. The average signal of each treatment was calculated from the triplicates after subtracting the blank signals. The percentage survival values were calculated using the following formula: % survival=(average signal of the drug treatment/average signal of untreated controls)×100. The data were finally imported into the Prism 4 software (GraphPad Software, San Diego, Calif.) to generate the dose-activity curves using non-linear regression curve fit and to calculate the IC50 values."}, "[16]": {"test_system": "SK-MEL-2", "test": "Cell proliferation assay (MTS or SRB), SK-MEL-2", "type": "cell-based", "conditions": "Homo sapiens, 72 h; SK-MEL-2, Skin (melanoma), 3 days; read-out: IC50 (cell growth inhibition)", "protocol": "as §1, §2, §4, §5"}, "[17]": {"test_system": "BK virus", "test": "Antiviral activity against BK virus in RPTEC cells (viral DNA by qPCR, 5 days)", "type": "cell-based", "conditions": "for EC50: Betapolyomavirus hominis, RPTEC, RPTEC cells", "protocol": "In order to test the activity of CMX001 to inhibit replication of BK virus, stocks of BK virus were prepared in HFF cells and dilutions of the virus stocks were used to infect primary human renal tubular epithelial cells (RPTECs). CMX001 were then added to the wells containing the infected cells and the plates were incubated for 5 days. Total DNA was prepared from the plates and viral DNA was quantified by qPCR."}, "[18]": {"test_system": "DU 145", "test": "Cell proliferation assay (MTS or SRB), DU 145", "type": "cell-based", "conditions": "Homo sapiens, 72 h; DU 145, Prostate, 3 days; read-out: IC50 (cell growth inhibition)", "protocol": "as §1, §2, §3"}, "[19]": {"test_system": "H460", "test": "Cell proliferation assay (MTS or SRB), H460", "type": "cell-based", "conditions": "Homo sapiens, NCI-H460, 72 h; H460, Lung, 3 days; read-out: IC50 (cell growth inhibition)", "protocol": "as §1, §2, §3"}, "[20]": {"test_system": "PC-3", "test": "Cell proliferation assay (MTS or SRB), PC-3", "type": "cell-based", "conditions": "Homo sapiens, 72 h; PC-3, Prostate, 3 days; read-out: IC50 (cell growth inhibition)", "protocol": "as §1, §2, §3"}, "[21]": {"test_system": "MDA-231", "test": "Cell proliferation assay (MTS or SRB), MDA-231", "type": "cell-based", "conditions": "Homo sapiens, MDA-MB-231, 72 h; MDA-231, Breast, 3 days; read-out: IC50 (cell growth inhibition)", "protocol": "as §1, §2, §3"}, "[22]": {"test_system": "A549", "test": "Cell proliferation assay (MTS or SRB), A549", "type": "cell-based", "conditions": "Homo sapiens, 72 h; A549, Lung, 3 days; read-out: IC50 (cell growth inhibition)", "protocol": "as §1, §2, §3"}, "[23]": {"test_system": "MCF-7", "test": "Cell proliferation assay (MTS or SRB), MCF-7", "type": "cell-based", "conditions": "Homo sapiens, MCF7, 72 h; MCF-7, Breast, 3 days; read-out: IC50 (cell growth inhibition)", "protocol": "as §1, §2, §3"}}}
{"smiles": "N.N.[Cl][Pt][Cl]", "note": "[Cisplatin]", "values": [{"measurement": "IC50", "setting": "[1]", "result": 9200, "unit": "nM"}, {"measurement": "IC50", "setting": "[2]", "result": 4900, "unit": "nM"}, {"measurement": "IC50", "setting": "[3]", "result": 1200, "unit": "nM"}, {"measurement": "IC50", "setting": "[4]", "result": 15500, "unit": "nM"}]}
{"smiles": "O=C1[O][Pt]2([NH][C@@H]3CCCC[C@H]3[NH]2)[O]C1=O", "note": "[Oxaliplatin]", "values": [{"measurement": "IC50", "setting": "[5]", "result": 360, "unit": "nM"}, {"measurement": "IC50", "setting": "[6]", "result": 480, "unit": "nM"}]}
{"smiles": "Nc1ccn([C@@H]2O[C@H](CO)[C@@H](O)C2(F)F)c(=O)n1", "note": "[Gemcitabine]", "values": [{"measurement": "IC50", "setting": "[7]", "result": 29, "unit": "nM"}, {"measurement": "IC50", "setting": "[8]", "result": 130, "unit": "nM"}]}
{"smiles": "COc1cccc2c1C(=O)c1c(O)c3c(c(O)c1C2=O)C[C@@](O)(C(=O)CO)C[C@@H]3O[C@H]1C[C@H](N)[C@H](O)[C@H](C)O1", "note": "[Doxorubicin]", "values": [{"measurement": "IC50", "setting": "[9]", "result": 60, "unit": "nM"}, {"measurement": "IC50", "setting": "[10]", "result": 50, "unit": "nM"}, {"measurement": "IC50", "setting": "[11]", "result": 29, "unit": "nM"}, {"measurement": "IC50", "setting": "[12]", "result": 74, "unit": "nM"}, {"measurement": "IC50", "setting": "[13]", "result": 1230, "unit": "nM"}, {"measurement": "IC50", "setting": "[14]", "result": 160, "unit": "nM"}]}
{"smiles": "Cn1nnc2c(C(N)=O)ncn2c1=O", "note": "[temozolomide]", "values": [{"measurement": "IC50", "setting": "[15]", "result": "> 100000", "unit": "nM"}, {"measurement": "IC50", "setting": "[16]", "result": "> 100000", "unit": "nM"}]}
{"smiles": "Nc1nc(O)c2ncn(COC(CO)CO)c2n1", "note": "[ganciclovir]", "values": [{"measurement": "EC50", "setting": "[17]; virus dilution 1:10", "result": 89000, "unit": "nM"}, {"measurement": "EC50", "setting": "[17]; virus dilution 1:50", "result": "> 100000", "unit": "nM"}, {"measurement": "EC50", "setting": "[17]; virus dilution 1:100", "result": 70800, "unit": "nM"}, {"measurement": "activity against BK virus replication", "setting": "[17]; RPTECs, in words", "result": "essentially inactive"}]}
{"smiles": "CC(=O)O[C@@]12CO[C@@H]1C[C@H](O)[C@@]1(C)C(=O)[C@H](O)C3=C(C)[C@@H](OC(=O)[C@H](O)[C@@H](NC(=O)OC(C)(C)C)c4ccccc4)C[C@@](O)([C@@H](OC(=O)c4ccccc4)[C@H]21)C3(C)C", "note": "[Docetaxel]", "values": [{"measurement": "IC50", "setting": "[18]", "result": 2.4, "unit": "nM"}, {"measurement": "IC50", "setting": "[19]", "result": 4.2, "unit": "nM"}, {"measurement": "IC50", "setting": "[20]", "result": 1.1, "unit": "nM"}, {"measurement": "IC50", "setting": "[21]", "result": 2.8, "unit": "nM"}, {"measurement": "IC50", "setting": "[22]", "result": 1.4, "unit": "nM"}, {"measurement": "IC50", "setting": "[23]", "result": 15, "unit": "nM"}]}
{"smiles": "CN(C)/N=N/c1[nH]cnc1C(N)=O", "note": "[DTIC, Dacarbazine]", "values": [{"measurement": "IC50", "setting": "[15]", "result": "> 100000", "unit": "nM"}, {"measurement": "IC50", "setting": "[16]", "result": "> 100000", "unit": "nM"}]}
